This note sets out measurements from patent US8835425B2, “Use of selective GABA A α5 negative allosteric modulators for the treatment of central nervous system conditions” (Hoffmann-La Roche Inc., priority 2010, dated 2014).

Test [1] addresses T1, human GABA A α5β3γ2 (Homo sapiens, UniProt P18507+P31644). The experiment in a line: [3H]flumazenil competition binding, HEK293 cells expressing human α5β3γ2. Set-up: expressed in transfected cells; host or cells: HEK293. As to conditions: [3H]flumazenil competition, human α5β3γ2; read-out: hKi α5.
Test [2] concerns the target T2, human GABA A α1β2/3γ2 (Homo sapiens, UniProt P14867+P18507). The experiment in a line: [3H]flumazenil competition binding, HEK293 cells expressing human α1β2/3γ2. Set-up: expressed in transfected cells; host or cells: HEK293. As to conditions: for Ki: [3H]flumazenil competition, human α1β2/3γ2, read-out: hKi α1; for hKi α1/hKi α5: binding selectivity ratio.
In test [3] the target is T3, human GABA A α2β3γ2 (Homo sapiens, UniProt P18507+P47869). The experiment in a line: [3H]flumazenil competition binding, HEK293 cells expressing human α2β3γ2. On the set-up: expressed in transfected cells; host or cells: HEK293. As to conditions: for Ki: [3H]flumazenil competition, human α2β3γ2, read-out: hKi α2; for hKi α2/hKi α5: binding selectivity ratio.
Test [4] concerns the target T4, human GABA A α3β3γ2 (Homo sapiens, UniProt P18507+P34903). Put plainly: [3H]flumazenil competition binding, HEK293 cells expressing human α3β3γ2. Set-up: expressed in transfected cells; host or cells: HEK293. The conditions noted are these: for Ki: [3H]flumazenil competition, human α3β3γ2, read-out: hKi α3; for hKi α3/hKi α5: binding selectivity ratio.
The target of test [5] is T1, human GABA A α5β3γ2. Put plainly: Two-microelectrode voltage clamp, modulation of GABA EC10 response in Xenopus oocytes, α5β3γ2. The format is cell-based. On the set-up: expressed in transfected cells; host or cells: Xenopus laevis oocytes. The conditions noted are these: % change of submaximal (EC10) response to GABA at 30×Ki. The method, then: (§1) Table 2b. […] Effect at human GABA A α5 receptors: % change of a submaximal (EC10) response to GABA determined at 30×Ki value from the flumazenil binding assay.
(§2) Subtype-selective effects were determined on cloned receptors expressed in Xenopus oocytes. Human recombinant GABA A receptors were expressed in Xenopus laevis oocytes. Current responses were evoked in two-microelectrode voltage-clamp condition by applying an EC10 of GABA before and during the co-application of the test compound. Response amplitudes in the presence of the test compound are expressed as percentage of the amplitudes before drug addition.

Test [6] has as its target T2, human GABA A α1β2/3γ2. The experiment in a line: Two-microelectrode voltage clamp, modulation of GABA EC10 response in Xenopus oocytes, α1β2/3γ2. The format is cell-based. On the set-up: expressed in transfected cells; host or cells: Xenopus laevis oocytes. As to conditions: % change of EC10 GABA response at 3 μM or at 30×Ki if Ki below 0.1 μM.
Test [7] deals with T3, human GABA A α2β3γ2. Put plainly: Two-microelectrode voltage clamp, modulation of GABA EC10 response in Xenopus oocytes, α2β3γ2. On the set-up: expressed in transfected cells; host or cells: Xenopus laevis oocytes. Format: cell-based. As to conditions: % change of EC10 GABA response at 3 μM or at 30×Ki if Ki below 0.1 μM. The method, then:
as §1, §2

The target of test [8] is T4, human GABA A α3β3γ2. Put plainly: Two-microelectrode voltage clamp, modulation of GABA EC10 response in Xenopus oocytes, α3β3γ2. The conditions noted are these: % change of EC10 GABA response at 3 μM or at 30×Ki if Ki below 0.1 μM. On the set-up: expressed in transfected cells; host or cells: Xenopus laevis oocytes. The format is cell-based. The method, then:
as §1, §2

With `Cc1onc(-c2ccccn2)c1COc1ccc(C(=O)N2CCOCC2)cn1` [Compound T1, [6-(5-Methyl-3-pyridin-2-yl-isoxazol-4-ylmethoxy)-pyridin-3-yl]-morpholin-4-yl-methanone], the Ki in test [1] was 14.6 nM. In test [2], the Ki turned out to be 468 nM and the “hKi α1/hKi α5” value is given as 32. Moreover, in test [3], the Ki turned out to be 293 nM and the “hKi α2/hKi α5” value worked out at 20. Moreover, in test [4], the Ki stood at 387 nM and the “hKi α3/hKi α5” value is 27. In test [5], the “Efficacy GABA A α5β3γ2” value is −31%. In addition, in test [6], the “Efficacy GABA A α1β2/3γ2” value is on record as −3%. Besides, the “Efficacy GABA A α2β3γ2” value in test [7] is listed as “+5%”. Also, the “Efficacy GABA A α3β3γ2” value in test [8] is “+9%”.
Consider `Cc1onc(-c2ccc(F)cn2)c1COc1ccc(C(=O)N2CCS(=O)(=O)CC2)cn1` [Compound V1, (1,1-Dioxo-1λ,6-thiomorpholin-4-yl)-{6-[3-(5-fluoro-pyridin-2-yl)-5-methyl-isoxazol-4-ylmethoxy]-pyridin-3-yl}-methanone], for which the Ki in test [1] amounted to 1.2 nM. Further, in test [2], the Ki came out at 143 nM and the “hKi α1/hKi α5” value is given as 119. For the same molecule, in test [3], the Ki worked out at 53.3 nM and the “hKi α2/hKi α5” value was 44. In test [4], the Ki was 76.1 nM and the “hKi α3/hKi α5” value was 63. In addition, the “Efficacy GABA A α5β3γ2” value in test [5] is on record as −33%. For the same molecule, the “Efficacy GABA A α1β2/3γ2” value in test [6] worked out at 0%. Further, in test [7], the “Efficacy GABA A α2β3γ2” value is reported as “+9%”. Further, in test [8], the “Efficacy GABA A α3β3γ2” value was “+16%”.
